Assay results taken from ChEMBL document CHEMBL1135216, “New 2-(1-adamantylcarbonyl)pyridine and 1-acetyladamantane thiosemicarbazones-thiocarbonohydrazones: cell growth inhibitory, antiviral and antimicrobial activity evaluation” (Bioorg Med Chem Lett, 2002).
In brackets after ≈: the same amount, converted by molar mass.

Experiments:
Assay type in all cases: functional
[1] = system: E6SM; assay: Tested for antiviral activity against VSV-virus in human embryonic skin muscle fibroblasts; details: Muscle tissue
[2] = system: E6SM; assay: Tested for antiviral activity against herpes simplex virus type 1(KOS) in E6SM cell line(human embryonic skin-muscle fibroblasts)
[3] = system: E6SM; assay: Tested for antiviral activity against thymidine kinase-deficient (TK-HSV-2G) virus in E6SM cell line(human embryonic skin-muscle fibroblasts)
[4] = system: E6SM; assay: Tested for antiviral activity against vaccinia virus in human embryonic skin muscle fibroblast; details: Muscle tissue
[5] = system: HeLa; assay: The compound was tested for antiviral activity against VSV-virus in human epithelial cells
[6] = system: E6SM; assay: The compound was tested for antiviral activity against thymidine kinase-deficient (TK-HSV-1)virus in E6SM cell line(human embryonic skin-muscle fibroblasts)
[7] = system: E6SM; assay: Tested for cytotoxic activity in human embryonic skin muscle fibroblast (E6SM); details: Muscle tissue
[8] = system: HEL; assay: Tested for cytotoxic activity in human embryonic lung fibroblast (HEL)
[9] = system: HEL; assay: Tested for antiviral activity against thymidine kinase deficient Varicella zoster virus in human embryonic lung fibroblasts
[10] = system: HEL; assay: Tested for antiviral activity against thymidine kinase wild type Varicella zoster virus in human embryonic lung fibroblast
[11] = system: HeLa; assay: Tested for antiviral activity against coxsackie-B4 virus in human epithelial cell line
[12] = system: HeLa; assay: Tested for cytotoxic activity in human epithelial cell line (HeLa)
[13] = system: Vero; assay: Tested for cytotoxic activity in African green monkey kidney cells (Vero); details: Chlorocebus sabaeus
[14] = system: Vero; assay: Tested for antiviral activity against Punta toro virus in African green monkey kidney cell (Vero); details: Chlorocebus sabaeus
[15] = system: Vero; assay: Tested for antiviral activity against Reo-1 virus in African green monkey kidney cell (Vero); details: Chlorocebus sabaeus
[16] = system: Vero; assay: Tested for antiviral activity against Sindbis virus in African green monkey kidney cell (Vero); details: Chlorocebus sabaeus
[17] = system: Vero; assay: Tested for antiviral activity against coxsackie B-4 virus in African green monkey kidney cell (Vero); details: Chlorocebus sabaeus
[18] = system: Vero; assay: Tested for antiviral activity against parainfluenza virus in african green monkey kidney cell (Vero); details: Chlorocebus sabaeus
[19] = system: HEL; assay: Tested for antiviral activity against human cytomegalovirus (AD-169) in human embryonic lung fibroblasts
[20] = system: CCRF-CEM; assay: Tested for the inhibitory concentration against cell growth of human leukemic cell line CCRF-CEM
[21] = system: CCRF-CEM; assay: Tested for the concentration required to reduce the viability of leukemia cells by 50% against cell growth of T cell leukemia cell line CCRF-CEM using MTT assay; details: Homo sapiens, read-out: LC50 (the source's name)
[22] = system: CCRF-CEM; assay: Tested for the inhibitory concentration against cell growth of Tcell leukemic cell line CCRF-CEM using MTT assay; details: Homo sapiens
[23] = system: HL-60; assay: Tested for the inhibitory concentration against cell growth of human leukemic cell line HL60
[24] = system: HL-60; assay: Tested for the concentration required to reduce the viability of leukemia cells by 50% against cell growth of HL60 acute myeloid leukemia using MTT assay; details: Homo sapiens, read-out: LC50 (the source's name)
[25] = system: HL-60; assay: Tested for the inhibitory concentration against cell growth of HL60 acute myeloid leukemia using MTT assay; details: Homo sapiens
[26] = system: HuT78; assay: Tested for the inhibitory concentration against cell growth of human leukemic cell line HuT78
[27] = system: HuT78; assay: Tested for the concentration required to reduce the viability of leukemia cells by 50% against cell growth of HuT78 T lymphoma using MTT assay; details: Homo sapiens, read-out: LC50 (the source's name)
[28] = system: HuT78; assay: Tested for the inhibitory concentration against cell growth of HuT78 T lymphoma using MTT assay; details: Homo sapiens
[29] = system: K562; assay: Tested for the concentration required to reduce the viability of leukemia cells by 50% against cell growth of K562 chronic myeloid leukemia using MTT assay; details: Homo sapiens, read-out: LC50 (the source's name)
[30] = system: K562; assay: Tested for the inhibitory concentration against cell growth of K562 chronic myeloid leukemia using MTT assay; details: Homo sapiens
[31] = system: K562; assay: Tested for the inhibitory concentration against cell growth of human leukemic cell line K562
[32] = system: MOLT-4; assay: Tested for the inhibitory concentration against cell growth of human leukemic cell line MOLT-4
[33] = system: MOLT-4; assay: Tested for the concentration required to reduce the viability of leukemia cells by 50% against cell growth of T cell leukemia cell line MOLT-4 using MTT assay; details: Homo sapiens, read-out: LC50 (the source's name)
[34] = system: MOLT-4; assay: Tested for the inhibitory concentration against cell growth of Tcell leukemic cell line MOLT-4 using MTT assay; details: Homo sapiens
[35] = system: RPMI-8226; assay: Tested for the inhibitory concentration against cell growth of human leukemic cell line RPMI8226
[36] = system: RPMI-8226; assay: Tested for the concentration required to reduce the viability of leukemia cells by 50% against cell growth of RPMI8226 multiple myeloma using MTT assay; details: Homo sapiens, read-out: LC50 (the source's name)
[37] = system: RPMI-8226; assay: Tested for the inhibitory concentration against cell growth of […] multiple myeloma using MTT assay; details: Homo sapiens

## O=c1[nH]c(=O)n([C@H]2C[C@H](O)[C@@H](CO)O2)cc1/C=C/Br [BRIVUDINE]
[1]
  MIC: > 400 µg/mL
[2]
  MIC: 0.05 µg/mL (≈ 0.15 µM)
[3]
  MIC: 80 µg/mL (≈ 240 µM)
[4]
  MIC: 3.2 µg/mL (≈ 9.61 µM)
[5]
  MIC: > 400 µg/mL
[6]
  MIC: 400 µg/mL (≈ 1200 µM)
[7]
  MCC: > 400 µg/mL
[8]
  MCC: > 50 µg/mL
[9]
  MIC: > 50 µg/mL
[10]
  MIC: 0.009 µg/mL (≈ 0.027 µM)
[11]
  MIC: > 400 µg/mL
[12]
  MCC: > 400 µg/mL
[13]
  MCC: > 400 µg/mL
[14]
  MIC: > 400 µg/mL
[15]
  MIC: > 400 µg/mL
[16]
  MIC: > 400 µg/mL
[17]
  MIC: > 400 µg/mL
[18]
  MIC: > 400 µg/mL

## Nc1ccn(C[C@@H](CO)OCP(=O)(O)O)c(=O)n1.O.O [CIDOFOVIR]
[8]
  MCC: > 50 µg/mL
[19]
  MIC: 0.27 µg/mL

## Nc1nc2c(ncn2COC(CO)CO)c(=O)[nH]1 [GANCICLOVIR]
[1]
  MIC: 9.6 µg/mL (≈ 37.6 µM)
[2]
  MIC: 0.0064 µg/mL (≈ 0.0251 µM)
[3]
  MIC: 0.019 µg/mL (≈ 0.0744 µM)
[4]
  MIC: > 100 µg/mL
[6]
  MIC: 9.6 µg/mL (≈ 37.6 µM)
[7]
  MCC: > 100 µg/mL
[8]
  MCC: > 50 µg/mL
[19]
  MIC: 2 µg/mL (≈ 7.84 µM)

## CC[C@]1(O)C[C@@H]2CN(CCc3c([nH]c4ccccc34)[C@@](C(=O)OC)(c3cc4c(cc3OC)N(C)[C@H]3[C@@](O)(C(=O)OC)[C@H](OC(C)=O)[C@]5(CC)C=CCN6CC[C@]43[C@@H]65)C2)C1 [VINBLASTINE]
[20]
  GI50: 20 pM
[21]
  CC50: 5730 pM
[22]
  TGI: 1910 pM
[23]
  GI50: 36 pM
[24]
  CC50: 1510 pM
[25]
  TGI: 250 pM
[26]
  GI50: < 250 pM
[27]
  CC50: 250 pM
[28]
  TGI: < 250 pM
[29]
  CC50: < 250 pM
[30]
  TGI: < 250 pM
[31]
  GI50: < 250 pM
[32]
  GI50: < 250 pM
[33]
  CC50: < 250 pM
[34]
  TGI: < 250 pM
[35]
  GI50: 3 pM
[36]
  CC50: 3280 pM
[37]
  TGI: 800 pM
